# Measurements published in patent publication US9302999B2, “Substituted triazoles as herbicides” (E. I. DU PONT DE NEMOURS AND COMPANY, priority 2012, dated 2016).
# Read-outs that look alike come from different tables or passages of the source.
# Key:
# Assay type in all cases: in vivo
# [1] = tested on: velvetleaf (Abutilon theophrasti); test: Test A pre-/postemergence: velvetleaf; details: Abutilon theophrasti, 240 h; for pest or weed control at 125 g/ha: 125 g ai/ha; for pest or weed control at 500 g/ha: 500 g ai/ha
# Summary of the method: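 Seeds were sown in loam/sand blend and sprayed preemergence (directed soil spray) and, simultaneously, postemergence at 2–10 cm, one- to two-leaf stage, using compounds in non-phytotoxic solvent with surfactant. After ~10 days in greenhouse, injury was rated visually versus untreated controls, 0 (no effect) to 100 (complete control).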
# [2] = tested on: blackgrass (Alopecurus myosuroides); test: Test C pre-/postemergence: blackgrass
# From the text: (§1) Seeds of plant species selected from blackgrass (Alopecurus myosuroides), bromegrass, downy (downy bromegrass, Bromus tectorum), foxtail, green (green foxtail, Setaria viridis), ryegrass, Italian (Italian ryegrass, Lolium multiflorum), winter wheat (Triticum aestivum), wild oat (Avena fatua), galium (catchweed bedstraw, Galium aparine), bermudagrass (Cynodon dactylon), surinam grass (Brachiaria decumbens), cocklebur (common cocklebur, Xanthium strumarium), corn (Zea mays), large crabgrass (Digitaria sanguinalis), woolly cupgrass (Eriochloa villosa), foxtail, giant (giant foxtail, Setaria faberii), goosegrass (Eleusine indica), johnsongrass (Sorghum halepense), kochia (Kochia scoparia), lambsquarters (Chenopodium album), morningglory (Ipomoea coccinea), nightshade (eastern black nightshade, Solanum ptycanthum), nutsedge, yellow (yellow nutsedge, Cyperus esculentus), pigweed (Amaranthus retroflexus), ragweed (common ragweed, Ambrosia elation), soybean (Glycine max), common (oilseed) sunflower (Helianthus annuus), Russian thistle (Salsola kali) and velvetleaf (Abutilon theophrasti) were planted into a blend of loam soil and sand and treated preemergence with test chemicals formulated in a non-phytotoxic solvent mixture which included a surfactant.
# (§2) At the same time, plants selected from these crop and weed species and also barley (winter barley, Hordeum vulgare), canarygrass (Phalaris minor), chickweed (common chickweed, Stellaria media) windgrass (Apera spica-venti) and deadnettle (henbit deadnettle, Lamium amplexicaule) were planted in pots containing Redi-Earth® planting medium (Scotts Company, 14111 Scottslawn Road, Marysville, Ohio 43041) comprising spaghnum peat moss, vermiculite, wetting agent and starter nutrients and treated with postemergence applications of test chemicals formulated in the same manner. Plants ranged in height from 2 to 18 cm (1- to 4-leaf stage) for postemergence treatments.
# (§3) Treated plants and controls were maintained in a greenhouse for 13 to 15 days, after which time all species were compared to controls and visually evaluated. Plant response ratings, summarized in Table C, are based on a scale of 0 to 100 where 0 is no effect and 100 is complete control. A dash (-) response means no test result.
# [3] = tested on: ryegrass, Italian (Italian ryegrass, Lolium multiflorum); test: Test C pre-/postemergence: ryegrass, Italian
# From the text: as §1, §2, §3
# [4] = tested on: winter wheat (Triticum aestivum); test: Test C pre-/postemergence: winter wheat
# From the text: as §1, §2, §3
# [5] = tested on: corn (Zea mays); test: Test C pre-/postemergence: corn
# From the text: as §1, §2, §3
# [6] = tested on: large crabgrass (Digitaria sanguinalis); test: Test C pre-/postemergence: large crabgrass
# From the text: as §1, §2, §3
# [7] = tested on: morningglory (Ipomoea coccinea); test: Test C pre-/postemergence: morningglory
# From the text: as §1, §2, §3
# [8] = tested on: chickweed (common chickweed, Stellaria media); test: Test C postemergence: chickweed
# From the text: as §2, §3
# [9] = post-emergence, Postemergence, 0 to 100 scale, 0 is no effect, 100 is complete control, read-out: Velvetleaf plant response rating
# [10] = post-emergence, Postemergence, visual rating on 0 to 100 scale (0 no effect, 100 complete control), approximately ten days, read-out: Velvetleaf plant response rating
# [11] = pre-emergence, Preemergence, 0 to 100 scale (0 no effect, 100 complete control), read-out: Plant response rating, Velvetleaf
# [12] = pre-emergence, Preemergence, 0 to 100 scale, 0 is no effect, 100 is complete control, read-out: Plant response rating, Velvetleaf
# [13] = Postemergence, 31 g ai/ha, scale 0 to 100 (0 no effect, 100 complete control)
# [14] = Postemergence, 62 g ai/ha, scale 0 to 100 (0 no effect, 100 complete control)
# [15] = Postemergence, 125 g ai/ha, scale 0 to 100, 0 no effect, 100 complete control
# [16] = Postemergence, 250 g ai/ha, scale 0 to 100
# [17] = Preemergence, 31 g ai/ha, scale of 0 to 100, 0 is no effect, 100 is complete control
# [18] = Preemergence, 62 g ai/ha, scale 0 to 100, 0 no effect, 100 complete control
# [19] = Preemergence, 125 g ai/ha, scale 0 to 100, 0 no effect, 100 complete control
# [20] = Preemergence, 250 g ai/ha, scale 0 to 100, 0 no effect, 100 complete control
# [21] = Preemergence, 62 g ai/ha, scale of 0 to 100, 0 is no effect, 100 is complete control
# [22] = 31 g ai/ha, scale 0 to 100 (0 no effect, 100 complete control)
# [23] = 62 g ai/ha, scale 0 to 100 (0 no effect, 100 complete control)
# [24] = 125 g ai/ha, scale 0 to 100, 0 no effect, 100 complete control
# [25] = Postemergence, 16 g ai/ha, scale 0 to 100, 0 no effect, 100 complete control
# [26] = Preemergence, 16 g ai/ha, scale 0 (no effect) to 100 (complete control)
# [27] = pre-emergence, Preemergence, 0 to 100 scale where 0 is no effect and 100 is complete control, read-out: Plant response rating, Velvetleaf
smiles,measurement,setting,value
"Cc1nn(-c2ccc(C(F)(F)F)cc2)nc1Oc1csc(C(F)(F)F)c1 [Compound 1, 4-methyl-2-[4-(trifluoromethyl)phenyl]-5-[[5-(trifluoromethyl)-3-thienyl]oxy]-2H-1,2,3-triazole]",pest or weed control at 125 g/ha,[1]; [9],30%
same,pest or weed control at 500 g/ha,[1]; [10],70%
same,pest or weed control at 125 g/ha,[1]; [11],0%
same,pest or weed control at 500 g/ha,[1]; [12],10%
"FC(F)(F)COc1nn(-c2ccc(C(F)(F)F)cc2)nc1Cc1ccnc(C(F)(F)F)c1 [Compound 14, 4-[[5-(2,2,2-trifluoroethoxy)-2-[4-(trifluoromethyl)phenyl]-2H-1,2,3-triazol-4-yl]methyl]-2-(trifluoromethyl)pyridine]",pest or weed control at 125 g/ha,[1]; [9],100%
same,pest or weed control at 500 g/ha,[1]; [10],100%
same,pest or weed control at 125 g/ha,[1]; [11],70%
same,pest or weed control at 500 g/ha,[1]; [12],90%
same,"Plant response rating, Blackgrass",[2]; [13],15
same,"Plant response rating, Blackgrass",[2]; [14],40
same,"Plant response rating, Blackgrass",[2]; [15],60
same,"Plant response rating, Blackgrass",[2]; [16],85
same,"Plant response rating, Blackgrass",[2]; [17],5
same,"Plant response rating, Blackgrass",[2]; [18],40
same,"Plant response rating, Blackgrass",[2]; [19],85
same,"Plant response rating, Blackgrass",[2]; [20],98
same,"Plant response rating, Ryegrass, Italian",[3]; [13],30
same,"Plant response rating, Ryegrass, Italian",[3]; [14],35
same,"Plant response rating, Ryegrass, Italian",[3]; [15],35
same,"Plant response rating, Ryegrass, Italian",[3]; [16],40
same,"Plant response rating, Ryegrass, Italian",[3]; [17],10
same,"Plant response rating, Ryegrass, Italian",[3]; [21],35
same,"Plant response rating, Ryegrass, Italian",[3]; [19],60
same,"Plant response rating, Ryegrass, Italian",[3]; [20],85
same,"Plant response rating, Wheat",[4]; [13],30
same,"Plant response rating, Wheat",[4]; [14],35
same,"Plant response rating, Wheat",[4]; [15],40
same,"Plant response rating, Wheat",[4]; [16],45
same,"Plant response rating, Wheat",[4]; [17],0
same,"Plant response rating, Wheat",[4]; [21],15
same,"Plant response rating, Wheat",[4]; [19],35
same,"Plant response rating, Wheat",[4]; [20],45
same,"Plant response rating, Corn",[5]; [13],5
same,"Plant response rating, Corn",[5]; [14],10
same,"Plant response rating, Corn",[5]; [15],15
same,"Plant response rating, Corn",[5]; [16],15
same,"Plant response rating, Corn",[5]; [17],0
same,"Plant response rating, Corn",[5]; [18],0
same,"Plant response rating, Corn",[5]; [19],5
same,"Plant response rating, Corn",[5]; [20],10
same,"Plant response rating, Crabgrass, Large",[6]; [13],10
same,"Plant response rating, Crabgrass, Large",[6]; [14],45
same,"Plant response rating, Crabgrass, Large",[6]; [15],45
same,"Plant response rating, Crabgrass, Large",[6]; [16],60
same,"Plant response rating, Crabgrass, Large",[6]; [17],95
same,"Plant response rating, Crabgrass, Large",[6]; [21],100
same,"Plant response rating, Crabgrass, Large",[6]; [19],100
same,"Plant response rating, Crabgrass, Large",[6]; [20],100
same,"Plant response rating, Morningglory",[7]; [13],75
same,"Plant response rating, Morningglory",[7]; [14],80
same,"Plant response rating, Morningglory",[7]; [15],80
same,"Plant response rating, Morningglory",[7]; [16],95
same,"Plant response rating, Morningglory",[7]; [17],10
same,"Plant response rating, Morningglory",[7]; [21],10
same,"Plant response rating, Morningglory",[7]; [19],55
same,"Plant response rating, Morningglory",[7]; [20],65
same,"Plant response rating, Chickweed",[8]; [22],60
same,"Plant response rating, Chickweed",[8]; [23],75
same,"Plant response rating, Chickweed",[8]; [24],75
same,"Plant response rating, Chickweed","[8]; 250 g ai/ha, scale 0 to 100",80
"COc1nn(-c2ccc(C(F)(F)F)cc2)nc1Cc1ccnc(C(F)(F)F)c1 [Compound 15, 4-[[5-methoxy-2-[4-(trifluoromethyl)phenyl]-2H-1,2,3-triazol-4-yl]methyl]-2-(trifluoromethyl)pyridine]",pest or weed control at 125 g/ha,[1]; [9],100%
same,pest or weed control at 500 g/ha,[1]; [10],100%
same,pest or weed control at 125 g/ha,[1]; [11],70%
same,pest or weed control at 500 g/ha,[1]; [12],80%
same,"Plant response rating, Blackgrass",[2]; [25],20
same,"Plant response rating, Blackgrass",[2]; [13],30
same,"Plant response rating, Blackgrass",[2]; [14],60
same,"Plant response rating, Blackgrass",[2]; [15],80
same,"Plant response rating, Blackgrass",[2]; [26],15
same,"Plant response rating, Blackgrass",[2]; [17],50
same,"Plant response rating, Blackgrass",[2]; [18],85
same,"Plant response rating, Blackgrass",[2]; [19],95
same,"Plant response rating, Ryegrass, Italian",[3]; [25],10
same,"Plant response rating, Ryegrass, Italian",[3]; [13],30
same,"Plant response rating, Ryegrass, Italian",[3]; [14],45
same,"Plant response rating, Ryegrass, Italian",[3]; [15],60
same,"Plant response rating, Ryegrass, Italian",[3]; [26],10
same,"Plant response rating, Ryegrass, Italian",[3]; [17],40
same,"Plant response rating, Ryegrass, Italian",[3]; [21],45
same,"Plant response rating, Ryegrass, Italian",[3]; [19],80
same,"Plant response rating, Wheat",[4]; [25],15
same,"Plant response rating, Wheat",[4]; [13],25
same,"Plant response rating, Wheat",[4]; [14],35
same,"Plant response rating, Wheat",[4]; [15],35
same,"Plant response rating, Wheat",[4]; [26],0
same,"Plant response rating, Wheat",[4]; [17],10
same,"Plant response rating, Wheat",[4]; [21],25
same,"Plant response rating, Wheat",[4]; [19],50
same,"Plant response rating, Corn",[5]; [25],0
same,"Plant response rating, Corn",[5]; [13],5
same,"Plant response rating, Corn",[5]; [14],15
same,"Plant response rating, Corn",[5]; [15],35
same,"Plant response rating, Corn",[5]; [26],0
same,"Plant response rating, Corn",[5]; [17],0
same,"Plant response rating, Corn",[5]; [18],0
same,"Plant response rating, Corn",[5]; [19],10
same,"Plant response rating, Crabgrass, Large",[6]; [25],5
same,"Plant response rating, Crabgrass, Large",[6]; [13],15
same,"Plant response rating, Crabgrass, Large",[6]; [14],45
same,"Plant response rating, Crabgrass, Large",[6]; [15],60
same,"Plant response rating, Crabgrass, Large",[6]; [26],98
same,"Plant response rating, Crabgrass, Large",[6]; [17],100
same,"Plant response rating, Crabgrass, Large",[6]; [21],100
same,"Plant response rating, Crabgrass, Large",[6]; [19],100
same,"Plant response rating, Morningglory",[7]; [25],45
same,"Plant response rating, Morningglory",[7]; [13],75
same,"Plant response rating, Morningglory",[7]; [14],75
same,"Plant response rating, Morningglory",[7]; [15],90
same,"Plant response rating, Morningglory",[7]; [26],5
same,"Plant response rating, Morningglory",[7]; [17],5
same,"Plant response rating, Morningglory",[7]; [21],15
same,"Plant response rating, Morningglory",[7]; [19],45
same,"Plant response rating, Chickweed","[8]; 16 g ai/ha, scale 0 to 100, 0 no effect, 100 complete control",55
same,"Plant response rating, Chickweed",[8]; [22],55
same,"Plant response rating, Chickweed",[8]; [23],70
same,"Plant response rating, Chickweed",[8]; [24],75
"COCc1nn(-c2ccc(C(F)(F)F)cc2)nc1Oc1cccc(OC(F)(F)F)c1 [Compound 115, 4-(methoxymethyl)-5-[3-(trifluoromethoxy)phenoxy]-2-[4-(trifluoromethyl)phenyl]-2H-1,2,3-triazole]",pest or weed control at 125 g/ha,[1]; [9],10%
same,pest or weed control at 500 g/ha,[1]; [10],30%
same,pest or weed control at 125 g/ha,[1]; [27],0%
same,pest or weed control at 500 g/ha,[1]; [11],20%
"FCc1nn(-c2ccc(C(F)(F)F)cc2)nc1Oc1cccc(OC(F)(F)F)c1 [Compound 116, 4-(fluoromethyl)-5-[3-(trifluoromethoxy)phenoxy]-2-[4-(trifluoromethyl)phenyl]-2H-1,2,3-triazole]",pest or weed control at 125 g/ha,[1]; [9],20%
same,pest or weed control at 500 g/ha,[1]; [10],50%
same,pest or weed control at 125 g/ha,[1]; [27],0%
same,pest or weed control at 500 g/ha,[1]; [11],20%
